Source: ChEMBL document CHEMBL2417517, “Isolation, structures, and biological activities of triterpenoids from a Penares sp. marine sponge” (J Nat Prod, 2013)
pIC50: −log10 of the molar value.

Test system: HL-60
Experiment: Cytotoxicity against human HL60 cells after 46 hrs by MTS assay
Type: functional, cell-based
Conditions: HL-60, 46 h

CC(C)=CCC[C@@H](C)[C@H]1CC[C@]23C(=O)O[C@]4(CC[C@]12C)C3=CC[C@H]1C(C)(C)[C@@H](O)CC[C@@]14C
pIC50: 5.01
